Experimental data reported in ChEMBL document CHEMBL5465560, “Selectivity Literature for EUbOPEN Chemogenomic Library” (2024).

Legend:
[1] = target: 3',5'-cyclic-AMP phosphodiesterase 4B (Homo sapiens) (UniProt Q07343); test: Selectivity interaction (Panel of kinases, GPCRs, ion channels and transporters (enzymatic assay)) EUB0000266bCl PDE4B
[2] = target: T1, Serine/threonine-protein kinase DCLK2 (Homo sapiens) (UniProt Q8N568); settings: at 10 µM
T1 sequence (whole entry): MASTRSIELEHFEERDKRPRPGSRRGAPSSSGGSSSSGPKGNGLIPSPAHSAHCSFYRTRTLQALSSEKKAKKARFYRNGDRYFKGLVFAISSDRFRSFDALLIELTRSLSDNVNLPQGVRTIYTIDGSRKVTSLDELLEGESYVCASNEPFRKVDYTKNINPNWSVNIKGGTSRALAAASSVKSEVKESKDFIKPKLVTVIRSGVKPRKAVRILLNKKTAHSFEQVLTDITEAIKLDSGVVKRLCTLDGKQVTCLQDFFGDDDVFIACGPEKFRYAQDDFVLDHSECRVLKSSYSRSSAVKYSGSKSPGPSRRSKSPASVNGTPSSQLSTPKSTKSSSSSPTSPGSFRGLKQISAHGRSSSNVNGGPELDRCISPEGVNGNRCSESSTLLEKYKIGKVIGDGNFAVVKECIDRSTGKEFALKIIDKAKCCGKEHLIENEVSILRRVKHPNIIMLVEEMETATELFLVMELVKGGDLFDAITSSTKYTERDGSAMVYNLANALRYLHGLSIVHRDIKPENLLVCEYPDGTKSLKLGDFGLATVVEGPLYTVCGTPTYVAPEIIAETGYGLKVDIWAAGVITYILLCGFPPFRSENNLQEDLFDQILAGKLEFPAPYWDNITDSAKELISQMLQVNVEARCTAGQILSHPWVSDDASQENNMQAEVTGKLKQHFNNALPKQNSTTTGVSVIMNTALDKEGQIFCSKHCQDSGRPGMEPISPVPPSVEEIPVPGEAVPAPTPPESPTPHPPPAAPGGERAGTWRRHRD

[3] = target: Serine/threonine-protein kinase PRP4 homolog (Homo sapiens) (UniProt Q13523); test: Selectivity interaction (KinomeScan (DiscoverX)) EUB0000695a PRPF4B; settings: at 100 nM
[4] = target: T2, Ephrin type-B receptor 3 (Homo sapiens) (UniProt P54753); test: Selectivity interaction (KinomeScan (DiscoverX)) EUB0000595a EPHB3; settings: at 10 µM
T2 sequence (whole entry): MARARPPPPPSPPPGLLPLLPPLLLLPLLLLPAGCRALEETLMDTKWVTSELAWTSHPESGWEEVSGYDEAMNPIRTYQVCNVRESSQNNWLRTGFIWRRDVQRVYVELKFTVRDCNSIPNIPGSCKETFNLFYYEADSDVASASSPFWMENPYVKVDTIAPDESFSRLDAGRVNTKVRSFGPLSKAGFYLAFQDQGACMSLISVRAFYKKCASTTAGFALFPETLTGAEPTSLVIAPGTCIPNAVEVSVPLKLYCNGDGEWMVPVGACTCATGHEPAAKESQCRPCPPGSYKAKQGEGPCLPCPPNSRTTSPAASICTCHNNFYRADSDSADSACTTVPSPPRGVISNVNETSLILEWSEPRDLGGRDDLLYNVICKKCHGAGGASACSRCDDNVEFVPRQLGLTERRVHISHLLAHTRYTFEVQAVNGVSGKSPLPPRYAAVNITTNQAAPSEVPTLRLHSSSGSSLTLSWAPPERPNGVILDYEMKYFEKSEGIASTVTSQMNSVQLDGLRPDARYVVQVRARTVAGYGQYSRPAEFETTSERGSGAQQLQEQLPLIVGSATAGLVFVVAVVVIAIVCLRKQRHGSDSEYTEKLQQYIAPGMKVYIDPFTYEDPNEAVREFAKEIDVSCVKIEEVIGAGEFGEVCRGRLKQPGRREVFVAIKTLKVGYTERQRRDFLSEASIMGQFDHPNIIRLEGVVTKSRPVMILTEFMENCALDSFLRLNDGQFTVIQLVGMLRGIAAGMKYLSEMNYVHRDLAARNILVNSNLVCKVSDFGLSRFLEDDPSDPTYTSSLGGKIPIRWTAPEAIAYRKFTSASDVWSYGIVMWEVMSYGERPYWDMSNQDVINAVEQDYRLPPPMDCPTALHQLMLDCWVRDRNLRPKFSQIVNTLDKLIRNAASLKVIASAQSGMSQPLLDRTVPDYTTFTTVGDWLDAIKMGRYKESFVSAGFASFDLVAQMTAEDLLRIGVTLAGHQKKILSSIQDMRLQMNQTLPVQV

[5] = target: T3, Aurora kinase C (Homo sapiens) (UniProt Q9UQB9); test: Selectivity interaction (KinomeScan (DiscoverX)) EUB0000045b AURKC
T3 sequence (whole entry): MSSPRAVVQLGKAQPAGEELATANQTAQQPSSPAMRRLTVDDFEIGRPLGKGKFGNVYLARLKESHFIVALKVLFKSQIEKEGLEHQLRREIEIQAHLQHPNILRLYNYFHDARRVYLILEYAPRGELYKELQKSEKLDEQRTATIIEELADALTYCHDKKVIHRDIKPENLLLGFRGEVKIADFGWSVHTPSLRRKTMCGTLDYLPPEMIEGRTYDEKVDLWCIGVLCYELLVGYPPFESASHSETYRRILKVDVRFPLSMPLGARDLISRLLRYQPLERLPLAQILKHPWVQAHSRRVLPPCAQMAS

[6] = target: Tyrosine-protein kinase Fyn (Homo sapiens) (UniProt P06241); test: Selectivity interaction (Kinase panel (KiNativ target engagement assay in Jurkat cells)) EUB0001635a FYN; type: cell-based; settings: Selectivity number of off-targets 0.0, Selectivity number of targets 233.0, Source Knowledge https://www.sciencedirect.com/science/article/pii/S2451945619300674?via%3Dihub, at 1 µM
[7] = target: Ribosomal protein S6 kinase alpha-6 (Homo sapiens, UniProt Q9UK32); test: Selectivity interaction (KinomeScan (DiscoverX)) EUB0000229b RPS6KA6; settings: at 10 µM
Chain of Ribosomal protein S6 kinase alpha-6 (Q9UK32 whole entry): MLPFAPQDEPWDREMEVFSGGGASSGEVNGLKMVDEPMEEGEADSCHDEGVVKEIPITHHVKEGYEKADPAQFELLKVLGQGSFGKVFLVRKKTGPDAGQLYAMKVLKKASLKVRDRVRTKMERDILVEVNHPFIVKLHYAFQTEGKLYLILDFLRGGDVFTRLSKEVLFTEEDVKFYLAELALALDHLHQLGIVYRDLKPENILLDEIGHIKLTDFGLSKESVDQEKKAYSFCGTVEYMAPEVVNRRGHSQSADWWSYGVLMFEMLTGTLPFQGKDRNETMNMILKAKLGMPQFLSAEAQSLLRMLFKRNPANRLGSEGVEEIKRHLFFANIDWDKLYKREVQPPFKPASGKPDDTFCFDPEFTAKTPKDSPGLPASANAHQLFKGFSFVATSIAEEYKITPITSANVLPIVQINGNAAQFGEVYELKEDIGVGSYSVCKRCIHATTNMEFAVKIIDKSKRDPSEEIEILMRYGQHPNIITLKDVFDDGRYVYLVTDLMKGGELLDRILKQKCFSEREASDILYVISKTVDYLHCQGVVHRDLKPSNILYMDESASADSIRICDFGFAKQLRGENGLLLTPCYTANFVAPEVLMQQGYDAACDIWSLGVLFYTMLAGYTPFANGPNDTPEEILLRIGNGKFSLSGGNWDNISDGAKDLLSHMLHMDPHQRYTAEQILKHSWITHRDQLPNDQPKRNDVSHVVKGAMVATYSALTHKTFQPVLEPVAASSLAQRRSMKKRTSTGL

Chain of 3',5'-cyclic-AMP phosphodiesterase 4B (Homo sapiens) (Q07343 whole entry): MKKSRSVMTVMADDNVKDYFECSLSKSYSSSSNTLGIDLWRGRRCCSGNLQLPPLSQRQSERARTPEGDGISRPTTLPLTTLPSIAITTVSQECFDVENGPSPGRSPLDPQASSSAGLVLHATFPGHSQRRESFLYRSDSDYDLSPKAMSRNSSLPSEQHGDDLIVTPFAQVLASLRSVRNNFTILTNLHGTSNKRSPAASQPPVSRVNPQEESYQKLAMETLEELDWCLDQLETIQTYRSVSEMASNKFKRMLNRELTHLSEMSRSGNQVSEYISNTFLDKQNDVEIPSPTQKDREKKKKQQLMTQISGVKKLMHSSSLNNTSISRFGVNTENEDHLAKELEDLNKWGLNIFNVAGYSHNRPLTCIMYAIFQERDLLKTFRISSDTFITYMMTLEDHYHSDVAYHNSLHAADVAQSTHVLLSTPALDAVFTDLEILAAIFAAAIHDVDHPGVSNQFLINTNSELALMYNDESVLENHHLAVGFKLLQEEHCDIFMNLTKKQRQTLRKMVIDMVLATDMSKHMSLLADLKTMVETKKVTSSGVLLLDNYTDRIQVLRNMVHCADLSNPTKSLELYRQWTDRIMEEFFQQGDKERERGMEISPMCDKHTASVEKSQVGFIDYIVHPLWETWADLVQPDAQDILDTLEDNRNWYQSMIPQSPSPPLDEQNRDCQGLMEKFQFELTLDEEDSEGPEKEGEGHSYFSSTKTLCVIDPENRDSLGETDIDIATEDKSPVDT
Chain of Tyrosine-protein kinase Fyn (Homo sapiens) (P06241 2-537 limits assumed): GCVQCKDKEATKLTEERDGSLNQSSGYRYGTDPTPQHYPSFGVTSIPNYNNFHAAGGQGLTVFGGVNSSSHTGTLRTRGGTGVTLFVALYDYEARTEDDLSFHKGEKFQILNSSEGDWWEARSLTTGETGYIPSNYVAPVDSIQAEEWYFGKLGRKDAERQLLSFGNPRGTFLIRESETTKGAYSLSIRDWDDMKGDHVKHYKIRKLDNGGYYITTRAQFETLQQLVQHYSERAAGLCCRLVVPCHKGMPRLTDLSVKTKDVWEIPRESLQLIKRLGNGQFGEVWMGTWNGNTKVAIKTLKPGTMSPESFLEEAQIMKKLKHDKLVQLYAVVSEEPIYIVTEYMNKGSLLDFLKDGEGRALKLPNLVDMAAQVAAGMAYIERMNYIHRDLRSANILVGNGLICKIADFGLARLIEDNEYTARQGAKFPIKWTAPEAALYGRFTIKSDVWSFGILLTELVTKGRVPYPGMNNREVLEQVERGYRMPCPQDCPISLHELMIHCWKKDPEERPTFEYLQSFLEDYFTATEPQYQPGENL
Chain of Serine/threonine-protein kinase PRP4 homolog (Homo sapiens) (Q13523 whole entry): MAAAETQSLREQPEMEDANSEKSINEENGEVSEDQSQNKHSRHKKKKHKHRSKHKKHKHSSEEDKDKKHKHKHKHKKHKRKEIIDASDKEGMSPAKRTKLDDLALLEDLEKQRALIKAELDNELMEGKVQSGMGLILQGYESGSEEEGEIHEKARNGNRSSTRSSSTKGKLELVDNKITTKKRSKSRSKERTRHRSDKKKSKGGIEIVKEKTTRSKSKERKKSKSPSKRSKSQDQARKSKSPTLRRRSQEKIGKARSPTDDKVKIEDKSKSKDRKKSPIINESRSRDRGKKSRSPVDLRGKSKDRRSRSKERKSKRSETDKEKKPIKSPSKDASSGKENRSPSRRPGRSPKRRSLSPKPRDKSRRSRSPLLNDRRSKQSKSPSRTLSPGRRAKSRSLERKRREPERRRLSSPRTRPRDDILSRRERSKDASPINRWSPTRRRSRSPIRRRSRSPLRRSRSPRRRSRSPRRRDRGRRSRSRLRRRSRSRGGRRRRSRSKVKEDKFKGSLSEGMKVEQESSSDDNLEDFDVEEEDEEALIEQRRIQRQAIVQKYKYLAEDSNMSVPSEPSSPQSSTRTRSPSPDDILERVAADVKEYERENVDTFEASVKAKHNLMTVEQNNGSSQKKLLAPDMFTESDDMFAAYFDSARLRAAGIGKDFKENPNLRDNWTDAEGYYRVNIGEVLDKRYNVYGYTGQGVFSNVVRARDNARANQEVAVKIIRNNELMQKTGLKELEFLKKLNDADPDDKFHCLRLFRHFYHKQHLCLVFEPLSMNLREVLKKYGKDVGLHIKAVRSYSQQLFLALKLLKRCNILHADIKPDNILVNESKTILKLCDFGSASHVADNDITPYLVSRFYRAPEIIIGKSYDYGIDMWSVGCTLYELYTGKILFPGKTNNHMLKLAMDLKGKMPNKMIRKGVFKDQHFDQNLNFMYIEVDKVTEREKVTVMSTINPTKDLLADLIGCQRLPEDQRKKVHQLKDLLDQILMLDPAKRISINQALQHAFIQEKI

Structure (SMILES): CCn1c(-c2nc3cc(C(=O)N4CCCC(N)C4)ccc3n2C)cc2ccccc21 (stereo not drawn)
- pXC50 [1]: 4.6 M

Structure (SMILES): CCN(CC)CCCCNc1ncc2cc(-c3cc(OC)cc(OC)c3)c(NC(=O)NC(C)(C)C)nc2n1
- % of control [2]: 100%

Structure (SMILES): Cc1cc(F)c(C(=O)Nc2cccc(-c3nncn3C(C)C)n2)cc1-n1cnc(C2CC2)c1
- % of control [3]: 81%

Structure (SMILES): COCC(=O)NC/C=C/c1ccc2ncnc(Nc3ccc(Oc4ccc(C)nc4)c(C)c3)c2c1 [CP-724714]
- % of control [4]: 86%

Structure (SMILES): C=CC(=O)Nc1cc(-n2c(=O)ccc3cnc4ccc(-c5ccc(NS(C)(=O)=O)cc5)cc4c32)ccc1C
- % of control ([5]; at 1 µM): 90%
- % of control ([5]; at 10 µM): 63%

Structure (SMILES): C=CC(=O)Nc1ccc(C(=O)Nc2[nH]nc3c2CN(C(=O)N[C@H](CN(C)C)c2ccccc2)C3(C)C)cc1
- % of engagement [6]: 6.2%

Structure (SMILES): COc1cc(N(C)c2ccnc3ccc(C(F)(F)F)cc23)cc(OC)c1OC
- % binding [7]: 81%
